Assay results taken from patent publication US9914910B2, “Methods of preserving and protecting pancreatic beta cells and treating or preventing diabetes by inhibiting NOX-1” (Eastern Virginia Medical School, priority 2013, dated 2018).

Experiments:
[1] = mice, dosing 1000 mg/Kg per os; cited from earlier work
NOX-1 = molecular target: T1, NOX-1 (Homo sapiens, UniProt Q9Y5S8); conditions: cited from earlier work
T1 sequence (Q9Y5S8 1-564): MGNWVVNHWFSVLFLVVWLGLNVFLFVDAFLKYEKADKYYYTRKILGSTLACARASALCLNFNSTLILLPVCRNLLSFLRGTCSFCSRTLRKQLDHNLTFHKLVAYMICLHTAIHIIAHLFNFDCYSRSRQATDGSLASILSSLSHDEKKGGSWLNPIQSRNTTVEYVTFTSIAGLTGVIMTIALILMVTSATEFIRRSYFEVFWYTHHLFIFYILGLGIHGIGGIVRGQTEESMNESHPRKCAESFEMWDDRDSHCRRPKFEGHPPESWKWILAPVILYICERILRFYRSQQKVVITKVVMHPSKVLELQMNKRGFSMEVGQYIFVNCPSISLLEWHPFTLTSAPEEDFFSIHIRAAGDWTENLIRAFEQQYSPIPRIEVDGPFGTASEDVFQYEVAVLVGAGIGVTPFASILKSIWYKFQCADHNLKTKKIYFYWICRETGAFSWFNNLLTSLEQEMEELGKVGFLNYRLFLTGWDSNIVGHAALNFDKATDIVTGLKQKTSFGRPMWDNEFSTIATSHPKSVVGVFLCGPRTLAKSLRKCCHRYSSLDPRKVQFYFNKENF
T1 sequence (P13498 1-195 partner): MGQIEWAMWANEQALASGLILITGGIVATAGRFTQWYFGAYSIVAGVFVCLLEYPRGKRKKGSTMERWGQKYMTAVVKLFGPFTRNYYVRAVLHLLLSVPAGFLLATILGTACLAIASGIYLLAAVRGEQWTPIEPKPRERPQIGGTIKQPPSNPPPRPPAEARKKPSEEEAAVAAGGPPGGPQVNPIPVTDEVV

beta cells [2] = experiment: Pro-caspase 3 cleavage after PIC, beta cell survival; type: cell-based; conditions: C1 100 nM, ML171 10 μM
Protocol: (§1) Loss of beta cell viability in response to inflammatory cytokines was assessed by measurement of caspase 3 activation and quantified microscopy. […] Measured by pro-caspase 3 cleavage (A) or quantified microscopy of YO-PRO-1 stained cells (B). […] Shown are RFU from fluorescent capase3 substrate, ##p<0.01 relative to control; *p<0.05; **p<0.01 relative to PIC (A) and Microscopic apoptotic index ###p<0.001 relative to control; ***p<0.001; **p<0.01 relative to PIC (B).

beta cells [3] = experiment: Quantified microscopy of YO-PRO-1 stained cells after PIC; type: cell-based; conditions: C1 100 nM, ML171 10 μM
Protocol: as §1

[4] = test system: NOX-1 gene expression in beta cells; experiment: Inflammatory cytokine-induced gene expression in beta cells; type: cell-based
From the text: Inflammatory cytokines (PIC; IFNγ, TNFα, IL-1β)) induce expression of NOX-1 and MCP-1 in beta cells. Elevated NOX-1 is associated with beta cell dysfunction and NOX-1 expression is associated with feed-forward generation of reactive oxygen species. […] Shown are fold increase, *p<0.05.
Feed-forward activation of NOX-1 can also be reduced with siRNA. Inflammatory cytokines (PIC; IFNγ, TNFα, IL-1β) induce the gene expression of NOX-1 that is further regulated in a feed-forward manner involving reactive oxygen species generated by NOX-1.
Compounds that inhibit interleukin-12, interleukin-23 and/or STAT4 signaling disrupt NOX-1 upregulation by inflammatory cytokines.

beta cells [5] = experiment: Static glucose-stimulated-insulin-secretion after PIC; type: cell-based; conditions: 100 nM, 3 mM vs 16 mM glucose
Protocol: Pyrazolopyridine dione compound class of dual selective NOX1/4 inhibitors were also evaluated on preservation of beta cell function and survival with concomitant exposure to inflammatory cytokines. Two NOX1/4 pyrazolopyridine dione compounds C1 and C2 (Methyl-2-phenyl-5-(2-pyridinylmethyl)-1H-pyrazolo[4,3-c]pyridine-3,6(2H,5H)-dione and 5-Benzyl-4-methyl-2-phenyl-1H-pyrazolo[4,3-c]pyridine-3,6(2H,5H)-dione, respectively) were assessed at 100 nM. […] Inflammatory cytokines (PIC; IFNγ, TNFα, IL-1β)) abolished this response. The glucose-stimulated-insulin-secretion response was preserved in the presence of inflammatory cytokines by pyrazolopyridine dione compounds C1 and C2. *p<0.05, **p<0.01.

[6] = test system: interleukin-12 and interleukin-23 production; conditions: cited from earlier work
[7] = test system: NOX-1 gene expression in primary mouse islets; experiment: PIC-induced NOX-1 gene expression (RT-PCR); type: cell-based; conditions: NCTT-1 100 nM, ML171 1 μM
From the text: Human donor islets were obtained from integrated islet distribution project (http://iidp.coh.org) and cultured in CMRL media (Mediatech, Manassas, Va.). Mouse islets were freshly isolated from 8-week old male C57BL/6J mice (Jackson Laboratory, Bar Harbor, Me.) by common bile duct cannulation and collagenase digestion. Islets were hand picked prior to use. […] Total RNA was isolated using the RNeasy Mini Kit (Qiagen, Valencia, Calif.) and cDNA prepared using MMLV reverse transcriptase (Life Technologies) and random hexamers (Life Technologies). Jump Start Taq polymerase (Life Technologies) was used in PCR reactions. Primers used with SYBR Green 1 (Molecular Probes, Carlsbad, Calif.) probes: […] GAPDH forward [NT] ID NO: 3); GAPDH reverse [NT] NO: 4). RT-PCR reactions were performed in triplicate (CFX96 Bio-Rad, Hercules, Calif.). Taqman primers (Life Technologies) were also used.

[8] = test system: MCP-1, IL-12p40, IL-12 p35, IFNγ gene expression in primary mouse islets; experiment: Cytokine-induced target gene expression (real time PCR); type: cell-based; conditions: NCTT-1 100 nM, ML171 1 μM
Protocol: (§2) Total RNA was isolated using the RNeasy Mini Kit (Qiagen, Valencia, Calif.) and cDNA prepared using MMLV reverse transcriptase (Life Technologies) and random hexamers (Life Technologies). Jump Start Taq polymerase (Life Technologies) was used in PCR reactions. […] RT-PCR reactions were performed in triplicate (CFX96 Bio-Rad, Hercules, Calif.). Taqman primers (Life Technologies) were also used. Data was normalized to the housekeeping gene GAPDH and analyzed using the 2-ΔΔCT method.
Data is quantitative real time PCR gene expression analysis from triplicate experiments performed in replicate. Fold induction in gene expression over control (non cytokine-treated) islets is graphed.

[9] = test system: MCP-1 expression in INS-1; experiment: Cytokine-induced MCP-1 gene expression (real time PCR); type: cell-based, rat; conditions: INS-1, 10 nM
Protocol: as §2
Data is quantitative real time PCR gene expression analysis from triplicate experiments performed in replicate.

Cc1c2c(=O)n(-c3ccccc3Cl)[nH]c2cc(=O)n1Cc1ccccn1 [GKT-136901]
tolerability [1]: well tolerated

c1ccc2c(c1)[I+]c1ccccc1-2 [diphenylene iodonium]
selectivity among NOX isotypes (in words) (NOX-1): non-selective

Methyl-2-phenyl-5-(2-pyridinylmethyl)-1H-pyrazolo[4,3-c]pyridine-3,6(2H,5H)-dione [C1]
inflammatory cytokine-induced cell death, pro-caspase 3 cleavage (beta cells [2]): significantly protected
inflammatory cytokine-induced cell death, YO-PRO-1 microscopic apoptotic index (beta cells [3]): significantly protected
inflammatory cytokine-induced gene expression (NOX-1 and MCP-1) [4]: dose-related inhibition
glucose-stimulated-insulin-secretion response with PIC (beta cells [5]): preserved

Cc1cccc(/C=N/Nc2cc(N3CCOCC3)nc(OCCc3ccccn3)n2)c1 [STA 5326, 6-morpholino-N-((E)-m-tolylmethyleneamino)-2-(2-(2-pyridyl)ethoxy)pyrimidin-4-amine]
induction of NOX-1 gene expression by inflammatory cytokines ([4]; 1 μM): inhibited
interleukin-12 and interleukin-23 production [6]: inhibits interleukin-12 and interleukin-23 production

COc1cc(C(C)=O)ccc1O [apocynin]
selectivity among NOX isotypes (in words) (NOX-1): non-selective

Cc1c2c(=O)n(-c3ccccc3)[nH]c2cc(=O)n1Cc1ccccc1 [C2, 5-Benzyl-4-methyl-2-phenyl-1H-pyrazolo[4,3-c]pyridine-3,6(2H,5H)-dione]
inflammatory cytokine-induced gene expression (NOX-1 and MCP-1) [4]: dose-related inhibition
glucose-stimulated-insulin-secretion response with PIC (beta cells [5]): preserved

Cc1c2c(=O)n(-c3ccccc3)[nH]c2cc(=O)n1Cc1ccccn1 [NCTT-1]
induction of gene NOX-1 by PIC [7]: attenuated
induction of gene IFNγ by PIC [8]: attenuated
induction of gene IL-12 p35 by PIC [8]: attenuated
induction of gene IL-12p40 by PIC [8]: attenuated
induction of gene MCP-1 by PIC [8]: attenuated
cytokine-induced MCP-1 expression [9]: attenuated cytokine-induced MCP-1 expression
